Assay results: US7192607B2, “Formulations for the prevention or the treatment of diseases affecting mucosae or skin, or for pregnancy prevention, and an applicator for the delivery of topical formulations into mucosal cavities” (Infectio Recherche Inc, priority 2002, dated 2007)

Legend:
[1] = tested on: HSV-2 (22); assay: Infectivity of HSV-2 (22) pretreated with SLS on Vero cells (PFU); type: cell-based, Herpes simplex virus type-2
Description: (§1) The effect of pretreating different strains of herpes viruses with SLS or DS on their viral infectivities to susceptible cells has been evaluated. In brief, cells were seeded in 24 well-plates (Costar, Montreal, QC, Canada). Prior to infection, the virus was either suspended in culture medium or phosphate buffered saline (PBS), or incubated with different concentrations of SLS in PBS for 1 h at 37° C. At confluency, cells were incubated with viral suspensions by centrifuging the plates (750× g for 45 min at 20° C.) to allow virus adsorption. Virus was removed and cell sheets were then overlaid with 0.5 ml of 0.6% agarose Seaplaque (Marine Colloids, Rockland, Md.) prepared in appropriate culture medium. The plates were incubated for 2 days at 37° C. Cells were then fixed with 10% formaldehyde in PBS for 20 min, washed with deionized water and stained with 0.05% methylene blue. Viral infectivity was evaluated via the determination of Plaque Forming Units (PFU).

[2] = tested on: various HSV-1 and HSV-2 strains; assay: Infectivity of HSV strains pretreated with SLS on Vero cells, text summary across strains; type: cell-based, Herpes simplex virus; details: pretreatment of the viruses with 50 μM SLS
Description: as §1
HSV-1 (strain F) infectivity was reduced to 21% when viral particles were pretreated with 25 μM SLS. The infectivities of all HSV-2 strains were between 50 to 70% following preincubation with 25 μM SLS. A complete loss of the infectivity of all strains tested were obtained following pretreatment of the viruses with 50 μM SLS.

[3] = tested on: Vero cells; assay: Viability of Vero cells exposed to SLS or DS (MTS test); details: Vero cells exposed 1 h at 37° C. to concentrations as in FIG. 1 and Table 1; data not shown
[4] = tested on: HSV-2 (15589); assay: Infectivity of HSV-2 (15589), foscarnet-resistant strain, pretreated with SLS on Vero cells (PFU); type: cell-based, Herpes simplex virus type-2
Description: as §1

[5] = tested on: HSV-2 (6); assay: Infectivity of HSV-2 (6), acyclovir-resistant strain, pretreated with SLS on Vero cells (PFU); type: cell-based, Herpes simplex virus type-2
Description: as §1

[6] = virus pretreated with 6.25 μM SLS for 1 hour at 37° C.
[7] = virus pretreated with 12.5 μM SLS for 1 hour at 37° C.
[8] = virus pretreated with 25 μM SLS for 1 hour at 37° C.
[9] = virus pretreated with 50 μM SLS for 1 hour at 37° C.

`CCCCCCCCCCCCOS(=O)(=O)[O-].[Na+]` [SLS, Sodium lauryl sulfate] was tested, and the “PFU (% of control) for HSV-2 (22)” value [1, 6] was 128.0 ± 18.5 % of control, the “PFU (% of control) for HSV-2 (22)” value [1, 7] was 103.4 ± 14.9 % of control and the “PFU (% of control) for HSV-2 (22)” value [1, 8] was 63.8 ± 11.9 % of control. For the same compound, the “PFU (% of control) for HSV-2 (22)” value [1, 9] was 0 % of control, the “infectivity of all strains tested” value [2] was “complete loss” and the “cytotoxicity (viability, MTS test)” value [3] was “No signs of cytotoxicity”. The “PFU (% of control) for HSV-2 (15589)” value [4, 6] was 108.7 ± 22.2 % of control, the “PFU (% of control) for HSV-2 (15589)” value [4, 7] was 115.1 ± 17.5 % of control and the “PFU (% of control) for HSV-2 (15589)” value [4, 8] was 59.0 ± 4.0 % of control. For the same compound, the “PFU (% of control) for HSV-2 (15589)” value [4, 9] was 0 % of control, the “PFU (% of control) for HSV-2 (6)” value [5, 6] was 105.3 ± 12.4 % of control and the “PFU (% of control) for HSV-2 (6)” value [5, 7] was 82.1 ± 40.7 % of control. For the same compound, the “PFU (% of control) for HSV-2 (6)” value [5, 8] was 51.1 ± 30.1 % of control and the “PFU (% of control) for HSV-2 (6)” value [5, 9] was 0 % of control.
